Test results published in PubChem BioAssay AID206 (DTP/NCI, 2004).
Values joined by “and” are separate entries in the source; they are usually repeats but may differ in a detail not shown here. Equal values may be shown once. Records with an inconclusive call do not appear.

System: nude mice, HT29 intrarenal xenograft, tumor weight T/C
Experiment: NCI In Vivo Anticancer Drug Screen. Data for tumor model HT29;CX-1 Human Adenocarcinoma (MER+) (intrarenal inoculation) in NU/NU Swiss (nude) mice
Conditions: endpoint: mean tumor weight change, higher = larger tumour
Outline: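 Readout: treated/vehicle-control ratio of the measured endpoint (tumor size or survival) in transplanted-tumor mice.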

For `CC(C)NC(=O)N(CCCCBr)N=O`, which T/C (dose: 75.0 mg/kg/injection, schedule: Q04DX004 (sc), vehicle: Klucel (hydroxypropylcellulose) (HPC)) is on record?
Its T/C is 174 % of control.

And the T/C (dose: 150.0 mg/kg/injection, schedule: Q04DX004 (sc), vehicle: Klucel (hydroxypropylcellulose) (HPC))?
Its T/C is 182 % of control.

What about the T/C (dose: 300.0 mg/kg/injection, schedule: Q04DX004 (sc), vehicle: Klucel (hydroxypropylcellulose) (HPC)) of the same molecule?
The T/C was 91 % of control.

And the T/C (dose: 600.0 mg/kg/injection, schedule: Q04DX004 (sc), vehicle: Klucel (hydroxypropylcellulose) (HPC))?
Its T/C is 108 % of control.

For `CC(=O)N(C)C`, which T/C (dose: 1350.0 mg/kg/injection, schedule: Q04DX004 (sc), vehicle: saline) is on record?
The T/C was 112 % of control.

And the T/C (dose: 2700.0 mg/kg/injection, schedule: Q04DX004 (sc), vehicle: saline)?
Its T/C is 45 % of control.

Which T/C (dose: 6.25 mg/kg/injection, schedule: Q01DX010 (sc), vehicle: saline) does the source give for `Cc1c2c(ccc3ccccc32)c[n+]2ccccc12` here?
The T/C was 84 % of control.

What about the T/C (dose: 12.5 mg/kg/injection, schedule: Q01DX010 (sc), vehicle: saline) of the same molecule?
Its T/C is 82 % of control.

Which T/C (dose: 0.19 mg/kg/injection, schedule: Q01DX010 (sc), vehicle: saline) does the source give for `Nc1ncn(C2OC(CO)C(O)C2O)c(=O)n1` (stereo not drawn) here?
Its T/C is 212 % of control.

What about the T/C (dose: 0.38 mg/kg/injection, schedule: Q01DX010 (sc), vehicle: saline) of the same molecule?
The T/C was 172 % of control.

And the T/C (dose: 0.75 mg/kg/injection, schedule: Q01DX010 (sc), vehicle: saline)?
Its T/C is 96 % of control.

What about the T/C (dose: 5.0 mg/kg/injection, schedule: Q04DX004 (sc), vehicle: saline) of the same molecule?
Its T/C is 66 % of control.

And the T/C (dose: 10.0 mg/kg/injection, schedule: Q04DX004 (sc), vehicle: saline)?
The T/C was 48 % of control and 49 % of control.

And the T/C (dose: 100.0 mg/kg/injection, schedule: Q04DX004 (sc), vehicle: saline)?
Its T/C is 62 % of control.

What about the T/C (dose: 200.0 mg/kg/injection, schedule: Q04DX004 (sc), vehicle: saline) of the same molecule?
Its T/C is 85 % of control.

And the T/C (dose: 200.0 mg/kg/injection, schedule: Q04DX004 (sc), vehicle: suspension in saline)?
The T/C was 98 % of control.

And the T/C (dose: 300.0 mg/kg/injection, schedule: Q04DX004 (sc), vehicle: suspension in saline)?
Its T/C is 24 % of control.

And the T/C (dose: 400.0 mg/kg/injection, schedule: Q04DX004 (sc), vehicle: saline)?
The T/C was 38 % of control.

What about the T/C (dose: 600.0 mg/kg/injection, schedule: Q04DX004 (sc), vehicle: suspension in saline) of the same molecule?
The T/C was 79 % of control.

And the T/C (dose: 800.0 mg/kg/injection, schedule: Q04DX004 (sc), vehicle: saline)?
The T/C was 7 % of control.

And the T/C (dose: 800.0 mg/kg/injection, schedule: Q04DX004 (sc), vehicle: suspension in saline)?
Its T/C is 29 % of control and 30 % of control.

What about the T/C (dose: 1200.0 mg/kg/injection, schedule: Q04DX004 (sc), vehicle: suspension in saline) of the same molecule?
Its T/C is 7 % of control.

And the T/C (dose: 1600.0 mg/kg/injection, schedule: Q04DX004 (sc), vehicle: suspension in saline)?
The T/C was 11 % of control.

Which results are given for `Cc1ccccc1SSc1ccccc1C`?
T/C (dose: 100.0 mg/kg/injection, schedule: Q01DX010 (sc), vehicle: saline with Tween-80): 62 % of control; T/C (dose: 200.0 mg/kg/injection, schedule: Q01DX010 (sc), vehicle: saline with Tween-80): 68 % of control

For `C=C1C(=O)O[C@@H]2[C@H](O)[C@@H](C)[C@@H]3C=CC(=O)[C@@]3(C)[C@H](OC(=O)C=C(C)C)[C@H]12`, which T/C (dose: 9.38 mg/kg/injection, schedule: Q04DX004 (sc), vehicle: saline with Tween-80) is on record?
The T/C was 93 % of control.

And the T/C (dose: 18.75 mg/kg/injection, schedule: Q04DX004 (sc), vehicle: saline with Tween-80)?
Its T/C is 121 % of control.

What about the T/C (dose: 37.5 mg/kg/injection, schedule: Q04DX004 (sc), vehicle: saline with Tween-80) of the same molecule?
Its T/C is 87 % of control.

How did the T/C (dose: 200.0 mg/kg/injection, schedule: Q04DX004 (sc), vehicle: saline with Tween-80) turn out when `Cc1ccc(S(=O)(=O)NC(=O)OC23COCN2COC3)cc1` was run?
Its T/C is 84 % of control.

What about the T/C (dose: 800.0 mg/kg/injection, schedule: Q04DX004 (sc), vehicle: saline with Tween-80) of the same molecule?
The T/C was 153 % of control.

What about the T/C (dose: 1600.0 mg/kg/injection, schedule: Q04DX004 (sc), vehicle: saline with Tween-80) of the same molecule?
Its T/C is 121 % of control.

How did the T/C (dose: 12.5 mg/kg/injection, schedule: Q04DX004 (sc), vehicle: other) turn out when `COC(=O)NC1C(C)OC(OC2C/C=C(/C)C3C=CC4C(OC5CC(OC6CCC(OC7CC(O)C(OC8CCC(O)C(C)O8)C(C)O7)C(C)O6)C(OC(C)=O)C(C)O5)C(C)CC(C)C4C3(C)/C(O)=C3/C(=O)OC4(CC(C=O)=CC(O)C4/C=C\2C)C3=O)CC1(C)[N+](=O)[O-]` (stereo not drawn) was run?
The T/C was 92 % of control.

And the T/C (dose: 25.0 mg/kg/injection, schedule: Q04DX004 (sc), vehicle: other)?
The T/C was 103 % of control.

And the T/C (dose: 50.0 mg/kg/injection, schedule: Q04DX004 (sc), vehicle: other)?
Its T/C is 51 % of control.

Which T/C (dose: 150.0 mg/kg/injection, schedule: Q04DX004 (sc), vehicle: distilled water + alcohol) does the source give for `Cc1cc(=NO)cc(C)n1O` here?
Its T/C is 73 % of control.

What about the T/C (dose: 300.0 mg/kg/injection, schedule: Q04DX004 (sc), vehicle: distilled water + alcohol) of the same molecule?
The T/C was 80 % of control.

And the T/C (dose: 600.0 mg/kg/injection, schedule: Q04DX004 (sc), vehicle: distilled water + alcohol)?
The T/C was 87 % of control.

And the T/C (dose: 1200.0 mg/kg/injection, schedule: Q04DX004 (sc), vehicle: distilled water + alcohol)?
Its T/C is 65 % of control.
